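Dose response: 5 concentrations. Exposure: 48 h. Format: 96-well plates. Endpoint: linear interpolation; highest concentration if not reached. GI50: concentration for 50% inhibition of growth.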 Activity calls are given as the source filed them. Cut-off read from the data, not from the text of the source: active = GI50 up to about 1.1 µM and inactive = higher. Bounds are passed on as bounds.

Assay in all cases: NCI-60 cell line screen, 48 h
Test [1] concerns 786-0.
Test [2] concerns A549.
Test [3] has as its system ACHN.
Test [4] deals with CCRF-CEM.
The test system of test [5] is HCC 2998.
Test [6] has as its system HL-60.
Test [7] has as its system HOP-92.
The test system of test [8] is KM12.
For test [9], the system named is MDA-MB-435.
Test [10] deals with OVCAR-5.
Test [11] relates to OVCAR-8.
The subject of test [12] is RXF 393.
Test [13] has as its system SF-539.
Test [14] has as its system SK-MEL-28.
Test [15] relates to SNB-19.
For test [16], the system named is SNB-75.
The test system of test [17] is SR.
Test [18] deals with T47D.
Test [19] concerns UACC-257.

Regarding `CCCCOC(=O)N[C@H]1CCc2cc(OC)c(OC)c(OC)c2-c2ccc(SC)c(=O)cc21`, the GI50 in test [1] is < 0.01 µM (active); in [2] it was < 0.01 µM (active); in [3] it was < 0.0114 µM (active); in test [4], < 0.01 µM (active); in [5], < 0.01 µM (active); in test [6], 0.0123 µM (active). In addition, the GI50 in [7] was < 0.01 µM (active); in test [8], < 0.01 µM (active); in [9], < 0.01 µM (active); in test [10] it was 0.147 µM (active); in test [11], < 0.01 µM (active); in test [12], < 0.031 µM (active). Moreover, the GI50 is < 0.01 µM (active) in [13]; 0.752 µM (active) in test [14]; < 0.0153 µM (active) in test [15]; < 0.0109 µM (active) in test [16]; < 0.0568 µM (active) in [17]; 18.1 µM (inactive) in [18]. The GI50 in test [19] was < 0.0286 µM (active).
As for `O=C(CC(C(=O)c1ccsc1)c1cccs1)c1ccccc1` (configuration not stated), the GI50 in test [1] was > 100 µM (inactive); in [2], 15.6 µM (inactive); in [3], > 100 µM (inactive); in test [4] it was 80.4 µM (inactive); in [5], > 100 µM (inactive); in test [6], 71.4 µM (inactive). The GI50 in test [7] is > 100 µM (inactive); in [8], 59 µM (inactive); in test [9], 57.3 µM (inactive); in test [10], > 100 µM (inactive); in [11], 89.1 µM (inactive); in test [12], 14 µM (inactive). The GI50 in test [13] was > 100 µM (inactive); in [14], > 100 µM (inactive); in test [16], 23.7 µM (inactive); in test [17], 76.9 µM (inactive); in test [18] it was 9.57 µM (inactive); in [19], > 100 µM (inactive).
On to `N#Cc1sc2c(c1OC(=O)c1ccc(Cl)cc1Cl)c(=O)n(-c1ccccc1)c(=S)n2-c1ccccc1`, for which the GI50 in [1] was 26 µM (inactive); in test [2] it was 30.5 µM (inactive); in test [3] it was 29 µM (inactive); in test [4] it was 4.85 µM (inactive); in test [5], 29.2 µM (inactive); in test [6], 19.6 µM (inactive). Further, the GI50 in test [7] is 20.2 µM (inactive); in test [8] it was 24 µM (inactive); in test [9] it was 19.7 µM (inactive); in test [10], 50.7 µM (inactive); in test [11], 19.9 µM (inactive); in [12], 19.8 µM (inactive). Moreover, the GI50 is 18.2 µM (inactive) in test [13]; > 100 µM (inactive) in test [14]; 19.8 µM (inactive) in [15]; 20.8 µM (inactive) in test [16]; > 100 µM (inactive) in test [17]; 26.6 µM (inactive) in [18]. Moreover, the GI50 in test [19] is 71.9 µM (inactive).
`CCn1nc(-c2ccccc2)c2c1N(C)c1ccccc1-n1c(-c3ccccc3)nnc1-2`: the GI50 in test [1] was 16.3 µM (inactive); in [2], 13.3 µM (inactive); in test [3] it was 13.5 µM (inactive); in test [4], 18.8 µM (inactive); in [5] it was 15.9 µM (inactive); in test [6], > 10 µM (inactive). The GI50 was 16.3 µM (inactive) in test [7]; > 100 µM (inactive) in test [9]; 19.4 µM (inactive) in test [10]; 20.9 µM (inactive) in [11]; 22.5 µM (inactive) in test [13]; 17.7 µM (inactive) in [14]. For the same compound, the GI50 in [15] was 15.9 µM (inactive); in [16], 3.69 µM (inactive); in test [17] it was 14.4 µM (inactive); in test [18] it was 4.63 µM (inactive).
Turning to `Cc1nc(C)c(C(=O)Nc2cccc3c2C(=O)NC3=O)cc1C(=O)Nc1cccc2c1C(=O)NC2=O`, the GI50 in [1], in [2], in test [3], in test [4], in [5] and in [6] was > 100 µM (inactive) in each case. Besides, the GI50 in test [7], in test [8], in test [10], in test [11], in test [12] and in test [13] was > 100 µM (inactive) throughout. Also, the GI50 in [14], in test [15], in [16], in [17] and in [19] was > 100 µM (inactive) each time.
For `Cc1ccc(S(=O)(=O)N/N=C2\CC3C4C=CC3C2C4)cc1` (configuration not stated), the GI50 in [1], in [2], in test [3], in [4], in [5] and in [6] was > 100 µM (inactive) throughout. In addition, the GI50 in test [7], in [8], in [9], in [10], in test [11] and in test [12] was > 100 µM (inactive) each time. Further, the GI50 in [13], in [14], in test [15], in test [18] and in test [19] was > 100 µM (inactive) each time.
Regarding `C/C=C/C(=O)N1C(=O)OC[C@@H]1c1ccccc1`, the GI50 in [1] was 18.2 µM (inactive); in test [2] it was 19.1 µM (inactive); in test [3], 19.1 µM (inactive); in test [4], 23 µM (inactive); in [5], 23.1 µM (inactive); in [6] it was 21.9 µM (inactive). Moreover, the GI50 in test [7] was 20.6 µM (inactive); in [8], 14.7 µM (inactive); in test [9] it was 27.4 µM (inactive); in [10] it was 17.4 µM (inactive); in test [11], 16.7 µM (inactive); in [12] it was 18.5 µM (inactive). Besides, the GI50 in [13] is 21.9 µM (inactive); in [14] it was 21.5 µM (inactive); in test [15], 20.4 µM (inactive); in test [16] it was 12.8 µM (inactive); in [18], 16.3 µM (inactive); in test [19], 20.4 µM (inactive).
`Cn1c(=O)c(Br)c(C=O)n(CCO[N+](=O)[O-])c1=O`: the GI50 is 5.14 µM (inactive) in test [1]; 16.1 µM (inactive) in [2]; 3.71 µM (inactive) in [3]; 1.62 µM (inactive) in test [4]; 15.4 µM (inactive) in test [5]; 1.77 µM (inactive) in [6]. Also, the GI50 in test [7] is 2.72 µM (inactive); in test [9] it was 5.42 µM (inactive); in test [10], 3.88 µM (inactive); in test [11], 2.52 µM (inactive); in test [13], 7.76 µM (inactive); in [14], 2.07 µM (inactive). The GI50 in test [15] was 26.2 µM (inactive); in test [16], 12.2 µM (inactive); in [17], 2.16 µM (inactive); in [18] it was 1.87 µM (inactive).
In the case of `Cc1cc(/C=C/c2cc[n+](C)c3ccccc23)c(O)c2ncccc12`, the GI50 is 0.916 µM (active) in test [1]; 2.07 µM (inactive) in test [2]; 4.22 µM (inactive) in [3]; 0.181 µM (active) in test [4]; 1.06 µM (active) in [5]; 0.625 µM (active) in test [6]. For the same compound, the GI50 is 2.99 µM (inactive) in test [7]; 2.19 µM (inactive) in test [8]; 3.27 µM (inactive) in test [10]; 0.411 µM (active) in test [11]; 2.38 µM (inactive) in [12]; 0.426 µM (active) in test [13]. The GI50 in test [14] was 2.16 µM (inactive); in test [15], 4.55 µM (inactive); in [16], 5.16 µM (inactive); in [17] it was 0.379 µM (active); in test [19], 2.97 µM (inactive).
Turning to `COc1ccc2c(c1)N(C(C)=O)CN1C(=O)CCC21` (configuration not stated), the GI50 in test [1] was > 100 µM (inactive); in test [2], > 100 µM (inactive); in test [3] it was > 100 µM (inactive); in test [4], 41.7 µM (inactive); in test [5], > 100 µM (inactive); in test [6], 48.2 µM (inactive). The GI50 in test [7], in test [8], in test [9], in [10], in test [11] and in [12] was > 100 µM (inactive) throughout. The GI50 in test [13], in [14], in test [15], in test [16], in test [18] and in test [19] was > 100 µM (inactive) in each case.
In the case of `CC(C)S(=O)(=O)ON1C(=O)c2ccc([N+](=O)[O-])cc2C1=O`, the GI50 in test [1], in test [2], in test [3], in [4], in test [5] and in [6] was > 100 µM (inactive) in each case. The GI50 was 41.9 µM (inactive) in test [7]; > 100 µM (inactive) in test [8]; > 100 µM (inactive) in [10]; > 100 µM (inactive) in [11]; > 100 µM (inactive) in test [12]; > 100 µM (inactive) in test [13]. The GI50 in [14], in [15], in test [16], in test [17] and in [19] was > 100 µM (inactive) each time.

The values above are taken from ChEMBL document CHEMBL1201862, “PubChem BioAssay data set” (2004).
